Assay [1] has as its system flavanone biosynthesis in recombinant yeast strain INV-4G. Kind of assay: Eriodictyol production from caffeic acid by INV-4G in the presence of luteolin. It counts as cell-based, S. cerevisiae. The following applies: varying luteolin concentrations (1, 3, 10 mg/L). The text has this: Heterologous expression and fermentation. In order to assemble the two different flavone biosynthetic pathways, recombinant INVSc1 carrying plasmid Ycc4c181G was transformed with YC-FSI, YC-FSII or YC-FSII+CPR1 separately, yielding recombinant strains INV-4G+FSI, INV-4G+FSII, and INV-4G+FSII+CPR1. Yeast colonies harboring both plasmids were selected upon growth on SC agar plates lacking leucine and tryptophan (SC-Leu-Trp-). For flavone fermentation purposes, an individual recombinant yeast colony was grown overnight in 10-mL liquid SC-Leu-Trp-containing glucose at 30° C. with shaking. The following day, a portion of this culture was used to seed the main culture of SC-Leu-Trp-containing galactose and raffinose or MA-Leu-Trp-containing galactose and acetate to an Ab600 of 0.4. 0.5 mM of phenylpropanoid acid (cinnamic acid, p-coumaric acid, caffeic acid, ferulic acid) was then added to the main culture, and incubation was carried out at 30° C. with horizontal shaking for a maximum of 92 hours.
The efficiency of eriodictyol production from caffeic acid by INV-4G in the presence of varying luteolin concentrations was also tested.

The subject of another assay is E. coli BL21 Star. Kind of assay: Effect of phenylpropanoid acids on E. coli growth (growth curves). The following applies: 2 mM cinnamic acid, M9 minimal medium. Format: cell-based. On the procedure:
Growth Curves. In order to investigate the effect of Phenylpropanoid acids on E. coli growth, E. coli BL21 Star was inoculated in 3 ml M9 liquid minimum medium and was left to grow at 37° C. overnight (preinoculum). The following day, 1 ml from the preinoculum was transferred to either 50 ml M9 minimal or Luria-Bertani (LB) rich liquid medium and p-coumaric acid, caffeic acid or cinnamic acid were added in the culture at different final concentrations (0 mM, 0.2 mM, 0.5 mM, 1 mM and 2 mM). Cell growth was monitored by measuring the absorbance at 600 nm (A600).
Phenylpropanoid acids reduce E. coli growth. We tested the effect of both p-coumaric acid and cinnamic acid on E. coli growth by incubating BL21 Star in M9 minimum medium and LB rich medium in the presence of different concentration of these compounds (0 mM, 0.05 mM, 0.1 mM, 0.15 mM, 0.2 mM, 1 mM, and 2 mM). […] For example, in the case of p-coumaric acid in […], the growth rate dropped from 0.28 h^−1 (control, 0 mM) to 0.18 h^−1 (2 mM). Similarly, for cinnamic acid the growth rate dropped from 0.27 h^−1 (control, 0 mM) to 0.17 h^−1 (2 mM) in M9 minimal medium.

For assay [2], the system named is S. cerevisiae strain INVSC1 carrying plasmid Ycc4c181. Kind of assay: Growth of recombinant yeast fed with phenylpropanoid acids. It counts as cell-based. Particulars: preliminary data. On the procedure: Yeast Shake Flask Experiment. A single colony of strain INVSC1 carrying plasmid Ycc4c181 was inoculated into 15 ml of SC-Leu minimal medium containing 2% glucose and was left to grow overnight at 30° C. with shaking (preinoculum). The following day, 50 ml induction medium (SC-Leu medium containing 2% galactose) was seeded with medium-free preinoculum to a final absorbance at 600 nm (A600) of 0.4. Cells were then left to grow at 30° C. with vigorous shaking for 4 hours. At that time, 50 μl of a 0.25 M stock solution of substrate (cinnamic acid, p-coumaric acid, caffeic acid or ferulic acid) were added to the culture to a final concentration of 0.25 mM. The culture was left to grow at 30° C. for a total of 65 hours with horizontal shaking. During that time, the culture was supplemented with another 50 μl of substrate stock every 12 hours for a total of 4 times.
Cinnamic acid was provided in a total of 5 increments to the culture. […] In all cases, after 65 hours of fermentation, only trace amounts of cinnamic acid were detected in the culture.
Flavanone compounds were identified by comparison of the retention time and UV profile with those of authentic standards and literature data.

On to `O=c1cc(-c2ccc(O)c(O)c2)oc2cc(O)cc(O)c12` [luteolin], for which, in assay [1], the “regulation (feedback inhibition) of flavanone biosynthesis” value is reported as “did not regulate”.
Take `O=C(O)C=Cc1ccccc1` [cinnamic acid]: in the assay with E. coli BL21 Star, the growth rate turned out to be 0.17 h⁻¹. Further, the “concentration in the medium resulting in significant cell growth arrest” value in assay [2] is “above 0.5 mM”.

The values are drawn from patent US7807422B2, “Production of flavonoids by recombinant microorganisms” (The Research Foundation of State University of New York, priority 2004, dated 2010).
